Results: US20090274773A1, “ANTIPROLIFERATIVE COMBINATION COMPRISING CYC-682 AND A CYTOTOXIC AGENT” (Cyclacel Limited, priority 2005, published 2009)

Tests used:
COLO205 = assay: MTT growth inhibition assay, single agent; format: cell-based, human; conditions: Homo sapiens, COLO 205, 48 hours exposure, read-out: Antiproliferative effects IC50s (MTT assay)
Description: (§1) All cell lines were obtained from the ATCC (Rockville, Md.). Cells were grown as monolayers in RPMI medium supplemented with 10% fetal calf serum (Invitrogen, Cergy-Pontoise, France), 2 mM glutamine, 100 units/ml penicillin and 100 μg/ml streptomycin. All cells were split twice a week using trypsin/EDTA (0.25% and 0.02%, respectively; Invitrogen, Cergy-Pontoise, France) and seeded at a concentration of 2.5×10^4 cells/ml. All cell lines were tested regularly for Mycoplasma contamination by PCR using a Stratagene kit (La Jolla, Calif.).
(§2) The MTT assay was carried out as described previously (Hansen M B, Nielsen S E, Berg K. Re-examination and further development of a precise and rapid dye method for measuring cell growth/cell kill. J Immunol Methods. 1989 May 12; 119(2):203-10). In brief, cells were seeded in 96-well tissue culture plates at a density of 2×10^3 cells/well. Cell viability was determined after a 120-hour incubation, by the calorimetric conversion of yellow, water-soluble tetrazolium MTT (3-[4,5-dimethylthiazol-2-yl]-2,5-diphenyltetrazolium bromide; Sigma, Saint-Quentin Fallavier, France), into purple, water-insoluble formazan. This reaction is catalyzed by mitochondrial dehydrogenases and is used to estimate the relative number of viable cells (Mosmann, T, Rapid calorimetric assay for cellular growth and survival: application to proliferation and cytotoxicity assays. J Immunol Methods. 1983 Dec. 16; 65 (1-2):55-63). Cells were incubated with 0.4 mg/ml MTT for 4 hours at 37° C. After incubation, the supernatant was discarded, the cell pellet was resuspended in 0.1 ml of DMSO and the absorbance was measured at 560 nm using a microplate reader (Dynatech, Michigan). Wells with untreated cells or with drug-containing medium without cells were used as positive and negative controls, respectively. Growth inhibition curves were plotted as a percentage of untreated control cells.
(§3) The cells were seeded at 2×10^3 cells/well in 96-well plates and treated 24 hours later with increasing concentrations of CYC682. After incubation times of 1 hour, 24 hours or 48 hours, the cells were washed and post-incubated in drug-free medium for 72 hours. Growth inhibition was then determined by the MTT assay.

HCC2998 = assay: MTT growth inhibition assay, single agent; format: cell-based, human; conditions: Homo sapiens, HCC 2998, 48 hours exposure, read-out: Antiproliferative effects IC50s (MTT assay)
Description: as §1, §2, §3

HCT116 = assay: MTT growth inhibition assay, single agent; format: cell-based, human; conditions: Homo sapiens, HCT-116, 48 hours exposure, read-out: Antiproliferative effects IC50s (MTT assay)
Description: as §1, §2, §3

HOP62 = assay: MTT growth inhibition assay, single agent; format: cell-based, human; conditions: Homo sapiens, HOP-62, 48 hours exposure, read-out: Antiproliferative effects IC50s (MTT assay)
Description: as §1, §2, §3

HOP92 = assay: MTT growth inhibition assay, single agent; format: cell-based, human; conditions: Homo sapiens, HOP-92, 48 hours exposure, read-out: Antiproliferative effects IC50s (MTT assay)
Description: as §1, §2, §3

HT29 = assay: MTT growth inhibition assay, single agent; format: cell-based, human; conditions: Homo sapiens, HT-29, 48 hours exposure, read-out: Antiproliferative effects IC50s (MTT assay)
Description: as §1, §2, §3

IGROV1 = assay: MTT growth inhibition assay, single agent; format: cell-based, human; conditions: Homo sapiens, IGROV-1, 48 hours exposure, read-out: Antiproliferative effects IC50s (MTT assay)
Description: as §1, §2, §3

MCF7 = assay: MTT growth inhibition assay, single agent; format: cell-based, human; conditions: Homo sapiens, 48 hours exposure, read-out: Antiproliferative effects IC50s (MTT assay)
Description: as §1, §2, §3

MDA-MB-435 = assay: MTT growth inhibition assay, single agent; format: cell-based, human; conditions: Homo sapiens, 48 hours exposure, read-out: Antiproliferative effects IC50s (MTT assay)
Description: as §1, §2, §3

OVCAR1 = assay: MTT growth inhibition assay, single agent; format: cell-based, human; conditions: Homo sapiens, 48 hours exposure, read-out: Antiproliferative effects IC50s (MTT assay)
Description: as §1, §2, §3

[1] = system: panel of human cancer cell lines; assay: Antiproliferative effects as single agent in a panel of human cancer cell lines (MTT); format: cell-based
Description: as §2, with “Wells with untreated cells or with drug-containing medium without cells were used as positive and negative controls, respectively. Growth inhibition curves were plotted as a percentage of untreated control cells.” left out
The cells were seeded at 2×10^3 cells/well in 96-well plates and treated 24 hours later with increasing concentrations of CYC682. […] Growth inhibition was then determined by the MTT assay. […]

colon cancer = conditions: cited from earlier work
[2] = phase I, patients with a variety of cancers; cited from earlier work

SMILES | IC50 (COLO205) [µM] | IC50 (HCC2998) [µM] | IC50 (HCT116) [µM] | IC50 (HOP62) [µM] | IC50 (HOP92) [µM] | IC50 (HT29) [µM] | IC50 (IGROV1) [µM] | IC50 (MCF7) [µM] | IC50 (MDA-MB-435) [µM] | IC50 (OVCAR1) [µM] | Cytotoxicity after 24 hour exposure ([1]; 24 hour exposure, panel of cell lines) | Antiproliferative activity in panel ([1]; most cancer cell lines) | Anticancer activity in a model of colon cancer (colon cancer; in vivo) | Increasing survival and preventing spread of colon cancer metastases to the liver, versus gemcitabine or 5-FU (colon cancer; same colon cancer model) | Dose limiting toxicity [2] | Tolerability in humans [2]
N#C[C@H]1[C@H](O)[C@@H](CO)O[C@H]1n1ccc(N)nc1=O [CNDAC, 1-(2-C-Cyano-2-deoxy-β-D-arabino-pentafuranosyl)-cytosine] | 8 ± 2 | 110 ± 21 | 2.8 ± 0.6 | 7 ± 1.8 | 23 ± 6 | 160 ± 43 | 89 ± 12 | 850 ± 60 | 95 ± 13 | > 900 | not sufficient | – | – | – | – | –
CCCCCCCCCCCCCCCC(=O)Nc1ccn([C@@H]2O[C@H](CO)[C@@H](O)[C@@H]2C#N)c(=O)n1 [CYC682, 2′-cyano-2′-deoxy-N^4-palmitoyl-1-β-D-arabinofuranosylcytosine] | 5 ± 0.8 | 3.5 ± 0.8 | 3 ± 0.6 | 6 ± 1.7 | 38 ± 8 | 4.5 ± 0.7 | 6.5 ± 1.6 | 7 ± 1.8 | 67 ± 14 | 45 ± 7 | – | antiproliferative activity at micromolar concentrations | strong anticancer activity | superior | myelosuppression | well tolerated
